From PMC3314654, “Characterization of Rhodamine-123 as a Tracer Dye for Use In In vitro Drug Transport Assays” (PLoS ONE, 2012)

Tests used:
OATP1A2 = biological target: T1, OATP1A2 (Homo sapiens, UniProt P46721); assay: R123 uptake in BacMam-transduced HEK293-MSRII cells (Km); format: cell-based
T1 construct: gene SLCO1A2
T1 sequence (P46721 1-670): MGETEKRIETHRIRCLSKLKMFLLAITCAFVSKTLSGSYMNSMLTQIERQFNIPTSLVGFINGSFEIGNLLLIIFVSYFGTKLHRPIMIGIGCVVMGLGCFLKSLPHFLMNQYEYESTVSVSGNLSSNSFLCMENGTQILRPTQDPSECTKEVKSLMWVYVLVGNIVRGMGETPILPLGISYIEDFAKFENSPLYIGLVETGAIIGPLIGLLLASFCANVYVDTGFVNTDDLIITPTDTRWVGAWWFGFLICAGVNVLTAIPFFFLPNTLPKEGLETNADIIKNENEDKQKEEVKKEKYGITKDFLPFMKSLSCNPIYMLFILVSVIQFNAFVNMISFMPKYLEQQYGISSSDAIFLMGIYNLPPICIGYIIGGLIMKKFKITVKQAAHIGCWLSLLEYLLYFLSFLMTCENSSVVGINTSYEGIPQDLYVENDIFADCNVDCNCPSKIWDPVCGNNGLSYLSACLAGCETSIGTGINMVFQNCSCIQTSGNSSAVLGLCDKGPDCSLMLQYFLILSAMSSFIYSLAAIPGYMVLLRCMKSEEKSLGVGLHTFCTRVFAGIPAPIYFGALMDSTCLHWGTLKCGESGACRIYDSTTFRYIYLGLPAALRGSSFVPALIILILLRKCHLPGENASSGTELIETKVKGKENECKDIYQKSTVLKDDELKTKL

ABCB1 (MDR1) = ABCB1 (MDR1) (Homo sapiens, UniProt P08183); assay: R123 efflux from MDCKII-ABCB1 versus naive MDCKII cells (Km); format: cell-based; conditions: mdck
Chain of ABCB1 (MDR1) (P08183 whole entry): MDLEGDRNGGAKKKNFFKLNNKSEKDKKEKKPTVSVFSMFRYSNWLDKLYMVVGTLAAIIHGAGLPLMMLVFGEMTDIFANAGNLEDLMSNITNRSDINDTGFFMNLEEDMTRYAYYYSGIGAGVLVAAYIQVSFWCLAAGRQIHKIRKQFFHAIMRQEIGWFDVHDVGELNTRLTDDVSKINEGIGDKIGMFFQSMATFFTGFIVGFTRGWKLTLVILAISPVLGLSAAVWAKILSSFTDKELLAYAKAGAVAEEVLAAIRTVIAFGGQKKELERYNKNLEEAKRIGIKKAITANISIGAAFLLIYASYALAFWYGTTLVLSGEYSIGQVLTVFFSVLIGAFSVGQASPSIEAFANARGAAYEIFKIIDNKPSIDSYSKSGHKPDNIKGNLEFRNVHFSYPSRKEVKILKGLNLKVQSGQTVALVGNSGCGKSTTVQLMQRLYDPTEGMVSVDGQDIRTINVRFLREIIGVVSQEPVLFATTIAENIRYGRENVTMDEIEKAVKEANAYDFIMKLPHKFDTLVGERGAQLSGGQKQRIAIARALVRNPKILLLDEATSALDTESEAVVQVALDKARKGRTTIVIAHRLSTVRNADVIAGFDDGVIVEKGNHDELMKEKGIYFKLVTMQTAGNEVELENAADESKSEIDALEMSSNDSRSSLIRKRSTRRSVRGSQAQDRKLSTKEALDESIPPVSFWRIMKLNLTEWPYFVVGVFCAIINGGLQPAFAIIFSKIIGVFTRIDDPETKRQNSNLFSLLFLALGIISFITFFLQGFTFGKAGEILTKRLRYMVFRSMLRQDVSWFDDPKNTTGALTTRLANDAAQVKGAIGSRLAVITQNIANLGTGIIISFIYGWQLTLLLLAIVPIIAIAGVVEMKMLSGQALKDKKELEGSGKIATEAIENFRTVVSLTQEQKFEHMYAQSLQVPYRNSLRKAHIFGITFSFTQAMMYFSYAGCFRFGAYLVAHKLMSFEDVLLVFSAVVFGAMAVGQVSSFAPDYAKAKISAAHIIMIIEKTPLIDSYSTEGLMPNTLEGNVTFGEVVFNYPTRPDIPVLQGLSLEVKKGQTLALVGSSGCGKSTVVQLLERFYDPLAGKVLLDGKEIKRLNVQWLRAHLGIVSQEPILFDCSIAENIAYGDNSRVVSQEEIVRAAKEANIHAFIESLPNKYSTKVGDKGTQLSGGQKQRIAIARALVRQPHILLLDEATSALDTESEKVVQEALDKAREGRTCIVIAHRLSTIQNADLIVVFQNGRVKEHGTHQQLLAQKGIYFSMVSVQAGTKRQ

Question: How did the Km (OATP1A2) turn out when `COC(=O)c1ccccc1-c1c2ccc(=N)cc-2oc2cc(N)ccc12` [R123, Rhodamine 123] was run?
Answer: Its Km is 0.3 ± 0.1 µM.

Question: What about the Km (ABCB1 (MDR1)) of the same molecule?
Answer: The Km was 17.5 ± 2.8 µM.
